Test results reported in ChEMBL document CHEMBL1201862, “PubChem BioAssay data set” (2004).
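Values below derive from 48-hour exposures of cells grown in 96-well plates, with endpoints linearly interpolated between the two concentrations bracketing the appropriate inhibition level. Here, GI50 denotes the concentration required for 50% inhibition of growth.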 The source made the active and inactive calls. No stated cut-off is given here; in the data, active = GI50 up to about 1.1 µM and inactive = higher. Residues, ends and D or L forms follow the SMILES beside them. *: point of attachment. Cbz = O=C(OCc1ccccc1)*

Tests used:
Test in all cases: NCI anticancer screen, dose series, 48 h
ACHN = system: ACHN
SK-MEL-5 = system: SK-MEL-5
KM12 = system: KM12
SW-620 = system: SW-620
HCT-15 = system: HCT-15
U-251 = system: U-251
HCT-116 = system: HCT-116
LOX IMVI = system: LOX IMVI
CCRF-CEM = system: CCRF-CEM
UACC-257 = system: UACC-257
A498 = system: A498
DU-145 = system: DU-145
SF-295 = system: SF-295
Malme-3M = system: Malme-3M
SF-268 = system: SF-268
A549 = system: A549
K562 = system: K562
OVCAR-4 = system: OVCAR-4
RPMI-8226 = system: RPMI-8226
NCI-H522 = system: NCI-H522

Row | SMILES | GI50 (ACHN) | GI50 (SK-MEL-5) | GI50 (KM12) | GI50 (SW-620) | GI50 (HCT-15) | GI50 (U-251) | GI50 (HCT-116) | GI50 (LOX IMVI) | GI50 (CCRF-CEM) | GI50 (UACC-257) | GI50 (A498) | GI50 (DU-145) | GI50 (SF-295) | GI50 (Malme-3M) | GI50 (SF-268) | GI50 (A549) | GI50 (K562) | GI50 (OVCAR-4) | GI50 (RPMI-8226) | GI50 (NCI-H522)
1 | CC1C2(C)OC(=N)C(C#N)(C(C)O2)C1(C#N)C#N (stereo not given) | 33.3 µM (inactive) | 13.1 µM (inactive) | 49.8 µM (inactive) | 16.6 µM (inactive) | 15.5 µM | 21.4 µM (inactive) | 24.4 µM (inactive) | 19.5 µM (inactive) | 16 µM (inactive) | 20.2 µM (inactive) | 87.7 µM (inactive) | 25.7 µM (inactive) | 90.2 µM (inactive) | 25 µM (inactive) | 30.8 µM (inactive) | 79.1 µM (inactive) | 34.9 µM (inactive) |  |  | 
2 | CN(C)CCCNC(=O)c1cc(NC(=O)CCCn2c3ccccc3c3ccccc32)cn1C | 26.9 µM (inactive) | 16.7 µM (inactive) | 21.4 µM (inactive) | > 100 µM (inactive) | 45.7 µM | 37.3 µM (inactive) | 25.9 µM (inactive) | 31 µM (inactive) | 29.6 µM (inactive) |  | 17.7 µM (inactive) | > 100 µM (inactive) | 25.9 µM (inactive) | 17.2 µM (inactive) | 66.7 µM (inactive) | 20.7 µM (inactive) | 31.6 µM (inactive) | 43.1 µM (inactive) | 17.1 µM (inactive) | 
3 | N=C(N)c1ccc(/C=C/c2ccc(C(=N)N)cc2)cc1 | > 100 µM (inactive) | 29.1 µM (inactive) | > 100 µM (inactive) | 96.8 µM (inactive) | > 100 µM | 33.5 µM (inactive) | > 100 µM (inactive) | > 100 µM (inactive) | > 100 µM (inactive) | 65.9 µM (inactive) | 14.9 µM (inactive) | > 100 µM (inactive) | 34.4 µM (inactive) | 53 µM (inactive) | > 100 µM (inactive) | 39.7 µM (inactive) | 49.8 µM (inactive) | > 100 µM (inactive) |  | 63.2 µM (inactive)
4 | O=[N+]([O-])c1ccc(N/N=C(\c2ccccc2)c2ccccn2)nc1 | 0.0785 µM (active) | 1.85 µM (inactive) | 6.62 µM (inactive) | 0.223 µM (active) | 0.151 µM | 1.26 µM (inactive) | 0.21 µM (active) |  | < 0.0218 µM (active) | 0.262 µM (active) | > 100 µM (inactive) | 5.53 µM (inactive) | 5.32 µM (inactive) | 0.0367 µM (active) | 2.51 µM (inactive) | 4.48 µM (inactive) |  | 18.7 µM (inactive) | 0.59 µM (active) | 0.0794 µM (active)
5 | Oc1c(N2CCCCC2)cc(-c2cc(N3CCCCC3)c(O)c3ccccc23)c2ccccc12 | 49.1 µM (inactive) | 17.5 µM (inactive) | 64.1 µM (inactive) | 29.3 µM (inactive) | 35.2 µM | 35.2 µM (inactive) | 19 µM (inactive) | 25.1 µM (inactive) | 30.2 µM (inactive) | 14.9 µM (inactive) |  | 23.4 µM (inactive) | 41.2 µM (inactive) | 12 µM (inactive) | 26 µM (inactive) | 39.3 µM (inactive) | 71.9 µM (inactive) | 17.1 µM (inactive) | 29.6 µM (inactive) | 
6 | Cc1cn(C2CC(N)C(C(=O)O)O2)c(=O)[nH]c1=O (stereo not given) | > 100 µM (inactive) | > 100 µM (inactive) | > 100 µM (inactive) | > 100 µM (inactive) | > 100 µM | > 100 µM (inactive) | > 100 µM (inactive) |  | > 100 µM (inactive) | > 100 µM (inactive) | > 100 µM (inactive) | > 100 µM (inactive) |  | > 100 µM (inactive) | > 100 µM (inactive) | > 100 µM (inactive) | > 100 µM (inactive) | > 100 µM (inactive) | > 100 µM (inactive) | > 100 µM (inactive)
7 | CCN(CC)CCNc1c(OC)cc(C)c2sc3ccccc3c(=O)c12 | 4.46 µM (inactive) | 1.91 µM (inactive) | 5.41 µM (inactive) | 5.35 µM (inactive) | 4.06 µM | 4.34 µM (inactive) | 4.66 µM (inactive) |  |  | 1.82 µM (inactive) |  | 11.9 µM (inactive) | 3.85 µM (inactive) | 2.13 µM (inactive) | 11 µM (inactive) | 4.31 µM (inactive) | 1.71 µM (inactive) | 5.3 µM (inactive) | 1.3 µM (inactive) | 5.33 µM (inactive)
8 | CC(Cc1ccccc1)N(C)Cc1nc(C2CCC([N+](=O)[O-])O2)no1 (stereo not given) |  | 11.5 µM (inactive) | 4.55 µM (inactive) | 3.1 µM (inactive) | 2.17 µM | 10.2 µM (inactive) | 7.29 µM (inactive) | 3.19 µM (inactive) | 12.2 µM (inactive) | 7.31 µM (inactive) |  | 12.4 µM (inactive) | 8.79 µM (inactive) | 11.9 µM (inactive) | 28.1 µM (inactive) | 12.1 µM (inactive) |  | 8.47 µM (inactive) | 14.8 µM (inactive) | 
9 | CNC(=S)Nc1ccc(OC)c2ccccc12 | > 10 µM (inactive) | > 10 µM (inactive) | > 10 µM (inactive) | > 10 µM (inactive) | > 10 µM | > 10 µM (inactive) | > 10 µM (inactive) | > 10 µM (inactive) | > 10 µM (inactive) | > 10 µM (inactive) |  | > 10 µM (inactive) | 2.04 µM (inactive) | > 10 µM (inactive) | > 10 µM (inactive) | > 10 µM (inactive) | > 10 µM (inactive) | > 10 µM (inactive) | > 10 µM (inactive) | > 10 µM (inactive)
10 | CC(C)CC(C#CCCOC(=O)c1ccccc1)OC(=O)c1ccccc1 (stereo not given) | > 10 µM (inactive) | > 10 µM (inactive) | > 10 µM (inactive) | > 10 µM (inactive) | > 10 µM | > 10 µM (inactive) | > 10 µM (inactive) | > 10 µM (inactive) | > 10 µM (inactive) | > 10 µM (inactive) | > 10 µM (inactive) | > 10 µM (inactive) | > 10 µM (inactive) | > 10 µM (inactive) | > 10 µM (inactive) | > 10 µM (inactive) | > 10 µM (inactive) |  |  | 
11 | Cc1ccc(S(=O)(=O)N(CC(O)COc2ccccc2)c2c(F)c(F)c(F)c(F)c2F)cc1 (stereo not given) | 15.7 µM (inactive) | 12.4 µM (inactive) | 20.7 µM (inactive) | 18.7 µM (inactive) | 16.5 µM | 13.2 µM (inactive) | 17 µM (inactive) | 13.9 µM (inactive) | < 0.01 µM (active) |  | 17.1 µM (inactive) | 22.3 µM (inactive) | 17.1 µM (inactive) | 22.8 µM (inactive) | 14.5 µM (inactive) | 13.4 µM (inactive) |  | 13.3 µM (inactive) | 1.04 µM (active) | 
12 | CCOc1ccc2ccccc2c1NC1=NCCO1 | 20.6 µM (inactive) | 44.9 µM (inactive) | 24.9 µM (inactive) | 46.1 µM (inactive) | > 100 µM | 45.3 µM (inactive) | 36.9 µM (inactive) |  | 39.1 µM (inactive) | 34.6 µM (inactive) | 35.1 µM (inactive) | > 100 µM (inactive) | 19.1 µM (inactive) | 39.5 µM (inactive) | > 100 µM (inactive) | 61 µM (inactive) | 19.8 µM (inactive) | 26.8 µM (inactive) | 19.5 µM (inactive) | 
13 | CO[C@]12C[C@@H](CNC(=O)c3cc(Br)c[nH]3)O[C@H]1NC(=O)N2 | > 100 µM (inactive) | > 100 µM (inactive) | > 100 µM (inactive) | > 100 µM (inactive) | > 100 µM | > 100 µM (inactive) | > 100 µM (inactive) |  | > 100 µM (inactive) | > 100 µM (inactive) | > 100 µM (inactive) | > 100 µM (inactive) | > 100 µM (inactive) | > 100 µM (inactive) | > 100 µM (inactive) | > 100 µM (inactive) | > 100 µM (inactive) | > 100 µM (inactive) | > 100 µM (inactive) | > 100 µM (inactive)
14 | COC(=O)[C@H](Cc1c[nH]c2ccccc12)NC(=O)OCC1OC(n2cc(C)c(=O)[nH]c2=O)CC1N=[N+]=[N-] (stereo not given in full) | > 100 µM (inactive) | 31.8 µM (inactive) | > 100 µM (inactive) | > 100 µM (inactive) | > 100 µM | > 100 µM (inactive) | > 100 µM (inactive) | 98.6 µM (inactive) | 93.3 µM (inactive) | 62.5 µM (inactive) |  | > 100 µM (inactive) | > 100 µM (inactive) | > 100 µM (inactive) | > 100 µM (inactive) | > 100 µM (inactive) | > 100 µM (inactive) | > 100 µM (inactive) | > 100 µM (inactive) | > 100 µM (inactive)
15 | Cc1nn(C(=O)c2ccc(Cl)cc2)c2c1C(c1cccc([N+](=O)[O-])c1)SC(=N)N2 (stereo not given) | > 10 µM (inactive) | > 10 µM (inactive) | > 10 µM (inactive) | > 10 µM (inactive) | 2.56 µM | > 10 µM (inactive) | > 10 µM (inactive) | > 10 µM (inactive) | > 10 µM (inactive) | > 10 µM (inactive) |  | > 10 µM (inactive) | > 10 µM (inactive) | > 10 µM (inactive) | > 10 µM (inactive) | > 10 µM (inactive) | > 10 µM (inactive) | > 10 µM (inactive) | > 10 µM (inactive) | > 10 µM (inactive)
16 | CC(NC(=O)C(NC(=O)OCc1ccccc1)C(C)C)C(=O)NCC(=O)O (stereo not drawn) (Cbz-Val-Ala-Gly-OH; configuration not given here) | > 100 µM (inactive) | > 100 µM (inactive) | > 100 µM (inactive) | > 100 µM (inactive) | > 100 µM | > 100 µM (inactive) | > 100 µM (inactive) |  |  | > 100 µM (inactive) |  | > 100 µM (inactive) | > 100 µM (inactive) | > 100 µM (inactive) | > 100 µM (inactive) | > 100 µM (inactive) | > 100 µM (inactive) |  | > 100 µM (inactive) | > 100 µM (inactive)
